Laboratory results: patent US8183230B2, “Antimicrobial preservatives to achieve multi-dose formulation using beta-cyclodextrins for liquid dosage forms” (priority 2004, dated 2012)

Legend:
[1] = Stability measurements (accelerated stability); settings: 3 mg/mL meta-cresol, 100 mg/mL SBE-CD, 10 mgA/mL compound of Formula Ia
Protocol: Stability Measurements. Potential lead formulations were evaluated under various accelerated stability conditions in order to assess potency and purity of compound of Formula Ia, preservative content and SBE-CD content. For example, in one accelerated stability study, potential lead formulations were placed in stability ovens to measure short-term thermal stability. […] Purity and potency assays to measure compound of Formula Ia, as well as antimicrobial preservatives and SBE-CD content, were performed using validated HPLC methodology. SBE-CD was assayed using GTP 5984.

[2] = Calculated non-sequestered concentrations in formulations; settings: preferred formulation: 10 mgA/mL compound, 63 mg/mL SBE-CD, 3.3 mg/mL meta-cresol, pH 4.4
From the text: These constants were used to calculate the concentration of non-sequestered meta-cresol in the formulations tested for anti-microbial efficacy.
The appearance of a plateau at the higher concentrations is only due to the limitation in the bactericidal efficacy measurement method. As the method consists in evaluating the population not killed by the preservative, when the whole population is dead (i.e. none is detectable any more ˜100%) the figure quoted is of the form: a log reduction greater than a value usually between 3 and 5.
The formulations were analyzed for preservative effectiveness.

[3] = Solubility analysis (solubility method) for binding constant with SBE-CD
Protocol: Traditional solubility methods were performed initially to determine the solubility and binding constants of compound of Formula Ia and preservative with SBE-CD.
Binding was calculated for meta-cresol using solubility analysis. The experiment was performed at different concentrations of compound of Formula Ia to determine if there was any effect from the presence of drug in solution on the meta-cresol binding constant. Meta-cresol solubility was measured in excess (saturated) meta-cresol and the equilibrium binding constant was calculated using the following equation:
[formula] Where St is the total solubility of meta-cresol, s0 is the inherent solubility of meta-cresol, Lt is the total concentration of SBE-CD (ligand) and K11 is the equilibrium binding constant of meta-cresol assuming a 1 to 1 binding stoichiometry.

[4] = Equilibrium dialysis method for determining binding constants
From the text: In the present invention, the method to determine binding constants utilizes equilibrium dialysis in the development of a multi-use parenteral formulation containing SBE-CD and a preservative. In particular, the method was applied in developing a parenteral formulation comprising the compound of Formula Ia, a cyclodextrin (SBE-CD) and a preservative (meta-cresol). This approach is applicable to compounds other than the compound of Formula Ia in developing parenteral formulations and is within the scope of this invention. […] The significance of this procedure is its ability to measure the binding constant of multiple compounds competing for binding with the cyclodextrin. The experimental dialysis data also provides an easily interpreted representation of binding in the formulation by visualizing the degree of interaction by the equilibrium established following dialysis.
Equilibrium dialysis permits calculation of binding constants by modeling the resultant diffusion rate across a semi-permeable membrane with an equilibrium end point. Equilibrium dialysis is performed by allowing the substrate in a solution containing bound substrate and ligand in a donor compartment of an equilibrium dialysis apparatus (cell) to equilibrate over time with an acceptor compartment. Ono, N., Hirayama, F., Arima, H., Uekama, K. “Determination of Stability Constant of β-Cyclodextrin Complexes Using the Membrane Permeation Technique and the Permeation Behavior of Drug Competing Agent-β-Cyclodextrin Ternary Systems” Eur. J. Pharm. Sci. 1999 9:133-139. The acceptor cell contains no ligand. The membrane is semi-permeable allowing the typically low molecular weight substrates to freely diffuse, while the cyclodextrin (MW=2163) remains in the donor compartment. Sampling from both compartments over time yields a time-concentration profile of substrate in both the donor and acceptor compartments of the dialysis cell.
A mathematical model describing the diffusion rate of drug across the membrane can be derived for systems containing two or more components in solution. The dialysis rate and binding constant for the substrates are obtained by resolving the equation using nonlinear curve fitting software. Depending on the interactions between the components it is possible to describe the competitive binding that occurs in the solution. The equilibrium binding constant is a measure of the relative concentration of meta-cresol bound to SBE-CD according to the chemical equilibrium equation below: S=meta-cresol, L=SBE-CD. S:L indicates the complex formed between meta-cresol and SBE-CD.
The initial experiments established the equilibrium dialysis flux rates for compound of Formula Ia and meta-cresol across the 500 MWCO dialysis membrane. Three different concentrations of compound of Formula Ia were initially loaded into the donor side of the dialysis well. Samples were withdrawn at various time intervals and concentration of free component was measured using HPLC. […] The smoothed line was a fit to the data using the model for a unitary system presented in the discussion. The equilibrium point for all these control experiments was reached after 50% of the total drug was distributed uniformly across the donor and acceptor sides of the well. This asymptotic approach to equilibrium was modeled and the dialysis rates were calculated, Table II.
The primary method of analyzing the data was to perform calculations from equilibrium dialysis data, as described below. In particular, the rate of diffusion across the membrane was calculated using the following equations:
The rate of diffusion from the donor phase is defined by the following relationship: [D]t−[D]eq=([D]0−[D]eq)e^(−2kt) (1)
Rate of diffusion into the Acceptor Phase: [D]eq−[D]t=[D]eqe^(−2kt) (2) wherein
The basis of calculation in the presence of SBE-CD is to assume that complexation occurs only in the donor phase according to the standard complexation reaction:
The value for CyDF may be substituted into equation 8. […]

[5] = binary, approximate ratio 1:1, Compound of Formula Ia 1.0, SBE-CD 1.0 mM
[6] = binary, approximate ratio 1:2, Compound of Formula Ia 0.5, SBE-CD 1.0 mM
[7] = binary, approximate ratio 1:4, Compound of Formula Ia 0.25, SBE-CD 1.0 mM
[8] = ternary, approximate ratio 1:1, Compound of Formula Ia 1.0, Meta-cresol 1.0 mM, SBE-CD 1.0 mM
[9] = ternary, approximate ratio 1:2, Compound of Formula Ia 0.5, Meta-cresol 0.5 mM, SBE-CD 1.0 mM
[10] = ternary, approximate ratio 1:4, Compound of Formula Ia 0.25, Meta-cresol 0.25 mM, SBE-CD 1.0 mM

## COc1ccc(C(C)(C)C)cc1CN[C@H]1C2CCN(CC2)[C@H]1C(c1ccccc1)c1ccccc1 [compound of Formula Ia]
[1]; 5° C., 1 week, Amber-Treated
  CONTENT (% INTENT): 97 % INTENT
[1]; 5° C., 1 week, Amber-Untreated
  CONTENT (% INTENT): 96 % INTENT
[1]; 5° C., 3 weeks, Amber-Treated
  CONTENT (% INTENT): 96 % INTENT
[1]; 5° C., 3 weeks, Amber-Untreated
  CONTENT (% INTENT): 95 % INTENT
[1]; 5° C., 6 weeks, Amber-Treated
  CONTENT (% INTENT): 95 % INTENT
[1]; 5° C., 6 weeks, Amber-Untreated
  CONTENT (% INTENT): 94 % INTENT
[1]; 5° C., 12 weeks, Amber-Treated
  CONTENT (% INTENT): 94 % INTENT
[1]; 5° C., 12 weeks, Amber-Untreated
  CONTENT (% INTENT): 94 % INTENT
[1]; 50° C., 1 week, Amber-Treated
  CONTENT (% INTENT): 95 % INTENT
[1]; 50° C., 1 week, Amber-Untreated
  CONTENT (% INTENT): 96 % INTENT
[1]; 50° C., 3 weeks, Amber-Treated
  CONTENT (% INTENT): 95 % INTENT
[1]; 50° C., 3 weeks, Amber-Untreated
  CONTENT (% INTENT): 93 % INTENT
[1]; 50° C., 6 weeks, Amber-Treated
  CONTENT (% INTENT): 96 % INTENT
[1]; 50° C., 6 weeks, Amber-Untreated
  CONTENT (% INTENT): 94 % INTENT
[1]; 50° C., 12 weeks, Amber-Treated
  CONTENT (% INTENT): 95 % INTENT
[1]; 70° C., 1 week, Amber-Treated
  CONTENT (% INTENT): 94 % INTENT
[1]; 70° C., 1 week, Amber-Untreated
  CONTENT (% INTENT): 94 % INTENT
[1]; 70° C., 2 weeks, Amber-Treated
  CONTENT (% INTENT): 94 % INTENT
[1]; 70° C., 2 weeks, Amber-Untreated
  CONTENT (% INTENT): 94 % INTENT
[1]; 70° C., 3 weeks, Amber-Treated
  CONTENT (% INTENT): 92 % INTENT
[1]; 70° C., 3 weeks, Amber-Untreated
  CONTENT (% INTENT): 94 % INTENT
[1]; 70° C., 6 weeks, Amber-Treated
  CONTENT (% INTENT): 92 % INTENT
[1]; 70° C., 6 weeks, Amber-Untreated
  CONTENT (% INTENT): 93 % INTENT
[1]; 70° C., 12 weeks, Amber-Treated
  CONTENT (% INTENT): 93 % INTENT
[1]; 70° C., 12 weeks, Amber-Untreated
  CONTENT (% INTENT): 93 % INTENT
[1]; ICH Photostability, 1X ICH UV/FI, Amber-Treated
  CONTENT (% INTENT): 92 % INTENT
[1]; ICH Photostability, 1X ICH UV/FI, Amber-Untreated
  CONTENT (% INTENT): 93 % INTENT
[1]; after 12 weeks at 70° C., relative to 1 week at 5° C.
  loss / potency decrease: 3%
[2]
  calculated non-sequestered concentration: 1.4 mg/mL
[3]
  binding constant with SBE-CD: 1040 M⁻¹
[3]; pH 4.4
  binding constant: 1040 M⁻¹
[4]; binary systems with SBE-CD
  drug binding constant greater than preservative: 13 fold
[4]; [5]
  Keq: 740 M⁻¹
  k: 0.015 h⁻¹
[4]; [6]
  Keq: 1092 M⁻¹
  k: 0.013 h⁻¹
[4]; [7]
  Keq: 1444 M⁻¹
  k: 0.012 h⁻¹
[4]; equilibrium dialysis method, binary systems, drug ±352 M−1, n=3, preservative ±7 M−1
  binding constant with SBE-CD: 1092 M⁻¹
[4]; [8]
  Keq: 690 M⁻¹
  k: 0.018 h⁻¹
[4]; [9]
  Keq: 720 M⁻¹
  k: 0.013 h⁻¹
[4]; [10]
  Keq: 520 M⁻¹
  k: 0.011 h⁻¹
